Experimental data reported in PMC10257182, “Discovery of senolytics using machine learning” (Nature Communications, 2023).
Structures can show the parent of a compound that is named as a salt. Where two headings read alike, the source gives them in different places.

What was measured:
Assay type in all cases: cell-based, human
[1] = test system: senescent IMR90 ER:RAS cells (4-OHT-induced); assay: Nuclei count (Hoechst, high content imaging) senolytic assay, oncogene-induced senescence (OIS) model, senescent cells
Procedure, shortened: (§1)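 We compared total nuclei counts between senescent and non-senescent IMR90 ER:RAS cells after 72 h compound exposure (10 nM–10 μM). Hoechst staining followed fixation and permeabilisation; ouabain served as senolytic positive control.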

[2] = test system: senescent A549 cells (etoposide-induced); assay: Nuclei count senolytic assay, therapy-induced senescence (TIS) model, senescent cells; conditions: Homo sapiens, A549, read-out: Mean % Cell Survival
Procedure, shortened: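 Nuclei counting by high-content imaging after 72 h compound treatment of senescent (etoposide-induced) versus control A549 cells. Top dose 10 μM final, lowest 10 nM.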

[3] = test system: non-senescent control IMR90 ER:RAS cells; assay: Nuclei count (Hoechst, high content imaging) senolytic assay, OIS model, non-senescent control cells; conditions: Homo sapiens
Procedure, shortened: as §1

C[C@H](CCC(=O)NCCS(=O)(=O)O)[C@H]1CC[C@H]2[C@@H]3[C@H](O)C[C@@H]4C[C@H](O)CC[C@]4(C)[C@H]3C[C@H](O)[C@]12C [Taurocholic acid sodium, taurocholic acid sodium salt hydrate]
viability at 10 µM ([1]; Homo sapiens, IMR-90, 72 h, read-out: Mean % Cell Survival, Senescent, log (dose) [M] -5, 72 h, mean n=3 (Fig 3C)): 110% | viability at 4.677 µM ([1]; Homo sapiens, IMR-90, 72 h, read-out: Mean % Cell Survival, Senescent, log (dose) [M] -5.33, 72 h, mean n=3 (Fig 3C)): 132% | viability at 2.188 µM ([1]; Homo sapiens, IMR-90, 72 h, read-out: Mean % Cell Survival, Senescent, log (dose) [M] -5.66, 72 h, mean n=3 (Fig 3C)): 115% | viability at 1 µM ([1]; Homo sapiens, IMR-90, 72 h, read-out: Mean % Cell Survival, Senescent, log (dose) [M] -6, 72 h, mean n=3 (Fig 3C)): 123% | viability at 0.4677 µM ([1]; Homo sapiens, IMR-90, 72 h, read-out: Mean % Cell Survival, Senescent, log (dose) [M] -6.33, 72 h, mean n=3 (Fig 3C)): 106% | viability at 0.2188 µM ([1]; Homo sapiens, IMR-90, 72 h, read-out: Mean % Cell Survival, Senescent, log (dose) [M] -6.66, 72 h, mean n=3 (Fig 3C)): 99.8% | viability at 0.1 µM ([1]; Homo sapiens, IMR-90, 72 h, read-out: Mean % Cell Survival, Senescent, log (dose) [M] -7, 72 h, mean n=3 (Fig 3C)): 96.6% | viability at 0.04677 µM ([1]; Homo sapiens, IMR-90, 72 h, read-out: Mean % Cell Survival, Senescent, log (dose) [M] -7.33, 72 h, mean n=3 (Fig 3C)): 108% | viability at 0.02188 µM ([1]; Homo sapiens, IMR-90, 72 h, read-out: Mean % Cell Survival, Senescent, log (dose) [M] -7.66, 72 h, mean n=3 (Fig 3C)): 112% | viability at 0.01 µM ([1]; Homo sapiens, IMR-90, 72 h, read-out: Mean % Cell Survival, Senescent, log (dose) [M] -8, 72 h, mean n=3 (Fig 3C)): 107% | viability at 0.2188 µM ([1]; Homo sapiens, IMR-90, read-out: % Cell Survival, Senescent cells, log (dose) [M] -6.66, individual replicates, SUP FIG 4C): 105% | viability at 0.1 µM ([1]; Homo sapiens, IMR-90, read-out: % Cell Survival, Senescent cells, log (dose) [M] -7, individual replicates, SUP FIG 4C): 101% | viability at 4.677 µM ([1]; Homo sapiens, IMR-90, read-out: % Cell Survival, Senescent, log (dose) [M] -5.33): 118% | senolytic activity (in words) ([1]; experimental screen, OIS IMR90 ER:RAS): inactive | viability at 0.01 µM [2]: 103% | viability at 0.0219 µM [2]: 108% | viability at 0.0468 µM [2]: 103% | viability at 0.1 µM [2]: 100% | viability at 0.219 µM [2]: 109% | viability at 0.468 µM [2]: 113% | viability at 1 µM [2]: 112% | viability at 2.19 µM [2]: 106% | viability at 4.68 µM [2]: 109% | viability at 10 µM [2]: 107% | viability at 10 µM ([3]; IMR-90, 72 h, read-out: Mean % Cell Survival, Control, log (dose) [M] -5, 72 h, mean n=3 (Fig 3C)): 105% | viability at 4.677 µM ([3]; IMR-90, 72 h, read-out: Mean % Cell Survival, Control, log (dose) [M] -5.33, 72 h, mean n=3 (Fig 3C)): 107% | viability at 2.188 µM ([3]; IMR-90, 72 h, read-out: Mean % Cell Survival, Control, log (dose) [M] -5.66, 72 h, mean n=3 (Fig 3C)): 115% | viability at 1 µM ([3]; IMR-90, 72 h, read-out: Mean % Cell Survival, Control, log (dose) [M] -6, 72 h, mean n=3 (Fig 3C)): 108% | viability at 0.4677 µM ([3]; IMR-90, 72 h, read-out: Mean % Cell Survival, Control, log (dose) [M] -6.33, 72 h, mean n=3 (Fig 3C)): 104% | viability at 0.2188 µM ([3]; IMR-90, 72 h, read-out: Mean % Cell Survival, Control, log (dose) [M] -6.66, 72 h, mean n=3 (Fig 3C)): 95.4% | viability at 0.1 µM ([3]; IMR-90, 72 h, read-out: Mean % Cell Survival, Control, log (dose) [M] -7, 72 h, mean n=3 (Fig 3C)): 81% | viability at 0.04677 µM ([3]; IMR-90, 72 h, read-out: Mean % Cell Survival, Control, log (dose) [M] -7.33, 72 h, mean n=3 (Fig 3C)): 94.8% | viability at 0.02188 µM ([3]; IMR-90, 72 h, read-out: Mean % Cell Survival, Control, log (dose) [M] -7.66, 72 h, mean n=3 (Fig 3C)): 103% | viability at 0.01 µM ([3]; IMR-90, 72 h, read-out: Mean % Cell Survival, Control, log (dose) [M] -8, 72 h, mean n=3 (Fig 3C)): 98.6% | viability at 10 µM ([3]; IMR-90, read-out: % Cell Survival, Control cells, log (dose) [M] -5, individual replicates, SUP FIG 4C): 105% | viability at 4.677 µM ([3]; IMR-90, read-out: % Cell Survival, Control cells, log (dose) [M] -5.33, individual replicates, SUP FIG 4C): 105% | viability at 2.188 µM ([3]; IMR-90, read-out: % Cell Survival, Control cells, log (dose) [M] -5.66, individual replicates, SUP FIG 4C): 122% | viability at 0.2188 µM ([3]; IMR-90, read-out: % Cell Survival, Control cells, log (dose) [M] -6.66, individual replicates, SUP FIG 4C): 98.1% | viability at 0.02188 µM ([3]; IMR-90, read-out: % Cell Survival, Control cells, log (dose) [M] -7.66, individual replicates, SUP FIG 4C): 103% | viability at 0.01 µM ([3]; IMR-90, read-out: % Cell Survival, Control cells, log (dose) [M] -8, individual replicates, SUP FIG 4C): 95% | viability at 10 µM ([3]; IMR-90, read-out: % Cell Survival, Control, log (dose) [M] -5): 101% | viability at 4.68 µM ([3]; IMR-90, read-out: % Cell Survival, Control, log (dose) [M] -5.33): 103% | viability at 2.19 µM ([3]; IMR-90, read-out: % Cell Survival, Control, log (dose) [M] -5.66): 108% | viability at 1 µM ([3]; IMR-90, read-out: % Cell Survival, Control, log (dose) [M] -6): 99.9% | viability at 0.468 µM ([3]; IMR-90, read-out: % Cell Survival, Control, log (dose) [M] -6.33): 102% | viability at 0.219 µM ([3]; IMR-90, read-out: % Cell Survival, Control, log (dose) [M] -6.66): 100% | viability at 0.1 µM ([3]; IMR-90, read-out: % Cell Survival, Control, log (dose) [M] -7): 87.4% | viability at 0.04677 µM ([3]; IMR-90, read-out: % Cell Survival, Control, log (dose) [M] -7.33): 102% | viability at 0.0219 µM ([3]; IMR-90, read-out: % Cell Survival, Control, log (dose) [M] -7.66): 97.8% | viability at 0.01 µM ([3]; IMR-90, read-out: % Cell Survival, Control, log (dose) [M] -8): 95.8%
